Experimental data from patent US7473688B2, “Indolobenzazepine HCV NS5B inhibitors” (Bristol-Myers Squibb Company, priority 2005, dated 2009).
Where two headings read alike, the source gives them in different places.

What was measured:
HCV NS5B = target: T1, HCV NS5B (Hepatitis C virus genotype 1b, UniProt Q9WMX2); assay: HCV NS5B RdRp enzyme assay (preincubation protocol); format: biochemical
T1 construct: The protein was expressed with an 18 amino acid C-terminal truncation to enhance the solubility; made in house; host or cells: E. coli BL21 (DE3), pET21a
T1 sequence (Q9WMX2 2420-2992): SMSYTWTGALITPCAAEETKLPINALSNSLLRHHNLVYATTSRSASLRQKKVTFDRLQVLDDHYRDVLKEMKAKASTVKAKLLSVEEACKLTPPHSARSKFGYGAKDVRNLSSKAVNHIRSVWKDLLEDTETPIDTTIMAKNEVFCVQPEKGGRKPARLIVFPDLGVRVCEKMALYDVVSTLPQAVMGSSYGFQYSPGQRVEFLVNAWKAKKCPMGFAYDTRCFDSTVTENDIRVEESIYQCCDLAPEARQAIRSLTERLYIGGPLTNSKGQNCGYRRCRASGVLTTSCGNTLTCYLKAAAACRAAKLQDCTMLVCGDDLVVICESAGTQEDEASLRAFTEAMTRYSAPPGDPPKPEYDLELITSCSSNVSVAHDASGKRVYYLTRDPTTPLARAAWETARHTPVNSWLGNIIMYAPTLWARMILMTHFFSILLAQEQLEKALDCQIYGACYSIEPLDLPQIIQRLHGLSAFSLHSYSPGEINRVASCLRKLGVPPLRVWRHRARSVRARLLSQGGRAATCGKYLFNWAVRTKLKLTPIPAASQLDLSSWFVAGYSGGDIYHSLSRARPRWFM
Outline: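 Preincubation format: enzyme (14 nM, genotype 1b, 18-residue C-terminal truncation) meets diluted compound first; reaction started with bead-bound biotinylated dT12 primer, polyA template 0.2 nM and 0.29 μM 3H-UTP. Run 4 h, 30 °C in Hepes pH 7.5; scintillation proximity signal; IC50 fitted from seven inhibitor levels.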

HCV replicon = HCV replicon FRET assay; format: cell-based; settings: Hepatitis C virus
Outline: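 HCV replicon cells, with or without Renilla luciferase reporter, incubated with titrated compounds at 37 °C; Alamar blue read for cytotoxicity. NS3 protease activity read from lysates with 20 μM EDANS/DABCYL FRET peptide (340/490 nm, kinetic), or by Dual-Glo luciferase. Background from highest protease-inhibitor wells; EC50 = 50% signal reduction.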

[1] = Table 1, FRET assay, read-out: EC50*
[2] = Table 1a, FRET assay, read-out: EC50*
[3] = Table 1b, FRET assay, read-out: EC50*

| SMILES | IC50 (HCV NS5B; Table 1, read-out: IC50*) [nM] | EC50 (HCV replicon; [1]) [nM] | further results |
| --- | --- | --- | --- |
| CN1CCCC(CN(C)C(=O)C2Cc3ccccc3-c3c(C4CCCCC4)c4ccc(C(=O)O)cc4n3C2)C1 (stereo not drawn) | 10 to 1000 | 70 to 1000 | – |
| CN(C)S(=O)(=O)NC(=O)c1ccc2c(C3CCCCC3)c3n(c2c1)CC(C(=O)N1CCN(C(=O)C2COc4ccccc4O2)CC1)=Cc1ccccc1-3 (stereo not drawn) | 10 to 1000 | 70 to 1000 | – |
| COC(=O)c1ccc2c(C3CCCCC3)c3n(c2c1)CC(C(=O)NC1CCOCC1)=Cc1cc(OC)ccc1-3 | – | – | IC50 (HCV NS5B; Table 1a, read-out: IC50*): 10 to 1000 nM; EC50 (HCV replicon; [2]): 30 to 1000 nM |
| O=C(O)c1ccc2c(C3CCCCC3)c3n(c2c1)CC(C(=O)N1CCC2(CC1)OCCO2)=Cc1ccccc1-3 | – | – | IC50 (HCV NS5B; IC50*, Table 1): 10 to 1000 nM; EC50 (HCV replicon): 70 to 1000 nM |
| COc1ccc2c(c1)C=C(C(=O)N(CC(=O)O)CC(=O)O)Cn1c-2c(C2CCCCC2)c2ccc(C(=O)NS(=O)(=O)N(C)C)cc21 | – | – | IC50 (HCV NS5B; Table 1b, read-out: IC50*): 20 to 1000 nM; EC50 (HCV replicon; [3]): > 10000 nM |
| COc1ccc2c(c1)CC(NC(=O)N1CCC(N3CCOCC3)CC1)Cn1c-2c(C2CCCCC2)c2ccc(C(=O)NS(=O)(=O)N(C)C)cc21 (stereo not drawn) | – | – | IC50 (HCV NS5B; Table 1a, read-out: IC50*): 10 to 1000 nM; EC50 (HCV replicon; [2]): 30 to 1000 nM |
| COc1ccc2c(c1)C=C(C(=O)N1CC(NC(=O)OC(C)(C)C)C1)Cn1c-2c(C2CCCCC2)c2ccc(C(=O)NS(=O)(=O)N(C)C)cc21 | – | – | IC50 (HCV NS5B; Table 1b, read-out: IC50*): 20 to 1000 nM; EC50 (HCV replicon; [3]): 30 to 1000 nM |
| CN(C)S(=O)(=O)NC(=O)c1ccc2c(C3CCCCC3)c3n(c2c1)CC(C(=O)N1CCN(c2nccs2)CC1)=Cc1ccccc1-3 | 10 to 1000 | 70 to 1000 | – |
| O=C(O)c1ccc2c(C3CCCCC3)c3n(c2c1)CC(C(=O)N1CCC(N2CCCCC2=O)CC1)Cc1ccccc1-3 (stereo not drawn) | 10 to 1000 | 70 to 1000 | – |
| O=C(NS(=O)(=O)N1CCOCC1)c1ccc2c(C3CCCCC3)c3n(c2c1)CC(C(=O)N1CCOCC1)=Cc1ccccc1-3 | 10 to 1000 | 70 to 1000 | – |
| CN(C)S(=O)(=O)NC(=O)c1ccc2c(C3CCCCC3)c3n(c2c1)CC(C(=O)N1CCS(=O)(=O)CC1)=Cc1ccccc1-3 | 10 to 1000 | 70 to 1000 | – |
| COc1ccc2c(c1)C=C(C(=O)N1CCOCC1)Cn1c-2c(C2CCCCC2)c2ccc(C(=O)NS(=O)(=O)c3ccc(C)cn3)cc21 | – | – | IC50 (HCV NS5B; Table 1b, read-out: IC50*): 20 to 1000 nM; EC50 (HCV replicon; [3]): 30 to 1000 nM |
| COc1ccc2c(c1)C=C(C(=O)N1CCOCC1)Cn1c-2c(C2CCCCC2)c2ccc(C(=O)NS(=O)(=O)N3CCCC3)cc21 | – | – | IC50 (HCV NS5B; Table 1b, read-out: IC50*): 20 to 1000 nM; EC50 (HCV replicon; [3]): 30 to 1000 nM |
| COc1ccc2c(c1)CC(C(=O)NCc1cc(C)nn1C)Cn1c-2c(C2CCCCC2)c2ccc(C(=O)NS(=O)(=O)N(C)C)cc21 (stereo not drawn) | – | – | IC50 (HCV NS5B; Table 1a, read-out: IC50*): 10 to 1000 nM; EC50 (HCV replicon; [2]): 30 to 1000 nM |
| CCS(=O)(=O)N1CCN(C(=O)C2=Cc3ccccc3-c3c(C4CCCCC4)c4ccc(C(=O)NS(=O)(=O)N(C)C)cc4n3C2)CC1 | 10 to 1000 | 70 to 1000 | – |
| O=C(O)c1ccc2c(C3CCCCC3)c3n(c2c1)C[C@H](NC(=O)N1CCOCC1)Cc1ccccc1-3 | 10 to 1000 | 70 to 1000 | – |
| CN(C)S(=O)(=O)NC(=O)c1ccc2c(C3CCCCC3)c3n(c2c1)CC(C(=O)N1CCC(C(=O)N2CCCC2)CC1)=Cc1ccccc1-3 | 10 to 1000 | 70 to 1000 | – |
| COc1ccc(S(=O)(=O)N2CCN(C(=O)C3=Cc4ccccc4-c4c(C5CCCCC5)c5ccc(C(=O)NS(=O)(=O)N(C)C)cc5n4C3)CC2)cc1 | 10 to 1000 | 70 to 1000 | – |
| COc1ccc2c(c1)CC(NC(=O)N(C)CCN(C)C)Cn1c-2c(C2CCCCC2)c2ccc(C(=O)NS(=O)(=O)N(C)C)cc21 (stereo not drawn) | – | – | IC50 (HCV NS5B; Table 1b, read-out: IC50*): 20 to 1000 nM; EC50 (HCV replicon; [3]): 30 to 1000 nM |
| CN(C)S(=O)(=O)NC(=O)c1ccc2c(C3CCCCC3)c3n(c2c1)CC(C(=O)N1C[C@@H]2C[C@H]1CO2)=Cc1ccccc1-3 | 10 to 1000 | 70 to 1000 | – |
| COc1ccc2c(c1)C=C(C(=O)N(C)[C@H](C(=O)N1CCOCC1)C(C)C)Cn1c-2c(C2CCCCC2)c2ccc(C(=O)NS(=O)(=O)N(C)C)cc21 | – | – | IC50 (HCV NS5B; Table 1b, read-out: IC50*): 20 to 1000 nM; EC50 (HCV replicon; [3]): 30 to 1000 nM |
| COc1ccc2c(c1)C=C(C(=O)N(C)CC(=O)N(C)C)Cn1c-2c(C2CCCCC2)c2ccc(C(=O)NS(=O)(=O)N(C)C)cc21 [drawing 162] | 10 to 1000 | 70 to 1000 | – |
| O=C1CCCN(C(=O)C2=Cc3ccccc3-c3c(C4CCCCC4)c4ccc(C(=O)O)cc4n3C2)N1 | 10 to 1000 | 1000 to 10000 | – |
| O=C(NS(=O)(=O)N1CCOCC1)c1ccc2c(C3CCCCC3)c3n(c2c1)CC(C(=O)N1CCOCC1)Cc1ccccc1-3 (stereo not drawn) | 10 to 1000 | 70 to 1000 | – |
| COc1ccc2c(c1)C=C(C(=O)N[C@@](C)(CO)C(=O)N(C)C)Cn1c-2c(C2CCCCC2)c2ccc(C(=O)NS(=O)(=O)N(C)C)cc21 | – | – | IC50 (HCV NS5B; Table 1b, read-out: IC50*): 20 to 1000 nM; EC50 (HCV replicon; [3]): 30 to 1000 nM |
| O=C(O)c1ccc2c(C3CCCCC3)c3n(c2c1)CC(C(=O)N1CCN(c2ncccn2)CC1)=Cc1ccccc1-3 | 10 to 1000 | 70 to 1000 | – |
| CC(=O)N1CCN(C(=O)C2=Cc3ccccc3-c3c(C4CCCCC4)c4ccc(C(=O)NS(=O)(=O)N(C)C)cc4n3C2)CC1 | 10 to 1000 | 70 to 1000 | – |
